{
  "source": "patent US8168656B2",
  "about": "“Indoleacetic acid and indenacetic acid derivatives as therapeutic agents with reduced gastrointestinal toxicity” (Vanderbilt University, priority 2009, dated 2012)",
  "key": {"mCOX-2^V349I [1]": {"target": "T1, mCOX-2^V349I (Mus musculus, UniProt Q05769, V335I)", "T1 construct": "made in house; host or cells: Sf9 insect cells (baculovirus, pVL1393)", "T1 sequence (Q05769 18-604 V335I)": "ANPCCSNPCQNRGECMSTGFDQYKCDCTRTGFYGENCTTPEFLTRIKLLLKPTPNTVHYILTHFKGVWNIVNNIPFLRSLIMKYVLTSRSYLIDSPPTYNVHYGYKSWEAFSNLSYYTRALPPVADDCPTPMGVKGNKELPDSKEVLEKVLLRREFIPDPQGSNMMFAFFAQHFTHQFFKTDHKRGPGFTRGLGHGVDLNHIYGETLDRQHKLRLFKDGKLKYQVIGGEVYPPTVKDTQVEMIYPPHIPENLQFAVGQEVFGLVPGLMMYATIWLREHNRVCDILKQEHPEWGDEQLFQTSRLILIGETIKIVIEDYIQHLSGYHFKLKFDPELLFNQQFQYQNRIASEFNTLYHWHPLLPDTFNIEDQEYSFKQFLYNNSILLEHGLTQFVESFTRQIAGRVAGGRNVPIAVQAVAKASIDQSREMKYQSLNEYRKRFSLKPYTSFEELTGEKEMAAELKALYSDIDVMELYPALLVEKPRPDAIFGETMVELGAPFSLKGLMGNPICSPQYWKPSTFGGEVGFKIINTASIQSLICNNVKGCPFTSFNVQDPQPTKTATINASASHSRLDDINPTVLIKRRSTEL", "experiment": "Activity recovery assay (reversibility of COX inhibition)", "assay_type": "biochemical, murine", "settings": "10 μM inhibitor, 50 μM AA", "description": "(§1) The reversibility of the second step in equation (1) could be directly evaluated by the amount of enzyme activity recovered after a prolonged incubation time with substrate. […] The enzymes were pre-incubated for 20 minutes with DMSO or 10 μM INDO, prior to the addition of 50 μM AA. After addition of AA, the oxygenation reactions were allowed to proceed for varying lengths of time. As the reaction time increased, the extent of inhibition decreased if INDO binding was reversible. The time course for recovery of AA oxygenation was fit to a single exponential (FIG. 3A).\n(§2) The reversibility of DM-INDO inhibition was evaluated similarly to INDO using the activity recovery assay (FIG. 3). The experiments and analysis were performed as described above."}, "wild type mCOX-2 [2]": {"target": "T2, wild type mCOX-2 (Mus musculus, UniProt Q05769)", "T2 construct": "made in house; host or cells: Sf9 insect cells (baculovirus, pVL1393)", "T2 sequence (Q05769 18-604)": "T1 sequence (Q05769 18-604 V335I) with I318V", "experiment": "Activity recovery assay (reversibility of COX inhibition)", "assay_type": "biochemical, murine", "settings": "10 μM inhibitor, 50 μM AA", "description": "as §1, §2"}, "mCOX-2^V349I [3]": {"target": "T1, mCOX-2^V349I", "experiment": "Steady-state quenching of COX intrinsic fluorescence (apo-protein)", "assay_type": "binding, murine", "description": "(§3) Steady-state measurements were performed at 37° C. in a 3.5 ml fluorescence cuvette with continuous stirring. […] Data were collected over 240 or 360 seconds with 2-second integration times. The reversibility of quenching was analyzed in the same manner, with subsequent addition of 50 μM AA as competitor. The ligands were dissolved in DMSO before further dilution into buffer. The organic component in the buffer was below 0.4%.\n(§4) This assay provided a method to directly monitor the binding of INDO and DM-INDO to COXs. Various concentrations of INDO and DM-INDO were added to apo-proteins and the rate of fluorescence decrease was monitored over time. After the mixture reached equilibrium, 50 μM of AA was added as competitor to monitor the reversibility of binding. The kinetic data for quenching were analyzed in the same manner as those for inhibition. For clarity, the equilibrium constant for the first step of fluorescence quenching is referred to as Kd, and k2 and k−2 from the second step of quenching are represented by k′2 and k′−2, respectively."}, "mCOX-2^V349L": {"target": "T3, mCOX-2^V349L (Mus musculus, UniProt Q05769, V335L)", "T3 construct": "made in house; host or cells: Sf9 insect cells (baculovirus, pVL1393)", "T3 sequence (Q05769 18-604 V335L)": "T1 sequence (Q05769 18-604 V335I) with I318L", "experiment": "Steady-state quenching of COX intrinsic fluorescence (apo-protein)", "assay_type": "binding, murine", "description": "as §3, §4"}, "wild type mCOX-2 [4]": {"target": "T2, wild type mCOX-2", "experiment": "Steady-state quenching of COX intrinsic fluorescence (apo-protein)", "assay_type": "binding, murine", "description": "as §3, §4"}, "[5]": {"settings": "fluorescence increase from competition with 50 μM AA"}},
  "note": "Where a chain is given by its changes, count along the chain named.",
  "data": [
    {"smiles": "COc1ccc2c(c1)c(CC(=O)O)cn2C(=O)c1ccc(Cl)cc1", "note": "[DM-INDO, 2-Des-methylindomethacin]", "values": [
      {"measurement": "K−2^b (rate constant determined by reversible inhibition)", "setting": "mCOX-2^V349I [1]", "result": "0.015 ± 0.005", "unit": "s⁻¹"},
      {"measurement": "K−2^b (rate constant determined by reversible inhibition)", "setting": "wild type mCOX-2 [2]", "result": "0.023 ± 0.001", "unit": "s⁻¹"},
      {"measurement": "k′−2^b", "setting": "mCOX-2^V349I [3]; [5]", "result": "0.005 ± 0.001", "unit": "s⁻¹"},
      {"measurement": "Kd", "setting": "mCOX-2^V349I [3]; fluorescence quenching", "result": "12 ± 5", "unit": "µM"},
      {"measurement": "k′2", "setting": "mCOX-2^V349I [3]; fluorescence quenching", "result": "0.09 ± 0.01", "unit": "s⁻¹"},
      {"measurement": "k′−2", "setting": "mCOX-2^V349I [3]; fluorescence quenching (decay)", "result": "0.003 ± 0.002", "unit": "s⁻¹"},
      {"measurement": "k′−2^b", "setting": "mCOX-2^V349L; [5]", "result": "0.006 ± 0.001", "unit": "s⁻¹"},
      {"measurement": "Kd", "setting": "mCOX-2^V349L; fluorescence quenching", "result": "34 ± 19", "unit": "µM"},
      {"measurement": "k′2", "setting": "mCOX-2^V349L; fluorescence quenching", "result": "0.05 ± 0.01", "unit": "s⁻¹"},
      {"measurement": "k′−2", "setting": "mCOX-2^V349L; fluorescence quenching (decay)", "result": "0.003 ± 0.002", "unit": "s⁻¹"},
      {"measurement": "k′−2^b", "setting": "wild type mCOX-2 [4]; [5]", "result": "0.007 ± 0.001", "unit": "s⁻¹"},
      {"measurement": "Kd", "setting": "wild type mCOX-2 [4]; fluorescence quenching", "result": "16 ± 9", "unit": "µM"},
      {"measurement": "k′2", "setting": "wild type mCOX-2 [4]; fluorescence quenching", "result": "0.16 ± 0.04", "unit": "s⁻¹"},
      {"measurement": "k′−2", "setting": "wild type mCOX-2 [4]; fluorescence quenching (decay)", "result": "0.006 ± 0.002", "unit": "s⁻¹"}
    ]}
  ]
}
